Test results reported in article PMC7673538 (PLoS Biology, 2020).
Values joined by “and” are separate entries in the source; they are usually repeats but may differ in a detail not shown here. Equal entries are not always repeated. Where two headings read alike, the source gives them in different places.

Tests used:
CV-B3 [1] = assay: microbe, parasite or virus in culture; assay type: cell-based, coxsackievirus B3
CV-B3 [2] = assay: microbe, parasite or virus in culture; assay type: cell-based, coxsackievirus B3; settings: Enterovirus B
CV-B3 [3] = assay: microbe, parasite or virus in culture; assay type: cell-based, coxsackievirus B3; settings: Enterovirus B, CVB3, BGM
in vitro = settings: human
[4] = system: all representative viruses; assay type: cell-based
Rluc-CV-B3 = assay type: cell-based; settings: Fig 3B
[5] = Enterovirus B, CVB3, HeLa R19, read-out: CV-B3 EC50 Average
[6] = Enterovirus B, CVB3, HeLa R19, read-out: CV-B3 Exp 1 EC50
[7] = Enterovirus B, CVB3, HeLa R19, read-out: CV-B3 Exp2 EC50
[8] = Enterovirus B, CVB3, HeLa R19, read-out: EC50 HelaR19 Average
[9] = Enterovirus B, CVB3, HeLa R19, read-out: Exp 1 EC50 HelaR19
[10] = Enterovirus B, CVB3, HeLa R19, read-out: Exp 2 EC50 HelaR19
[11] = CVB3, HAP1, read-out: EC50 Hap1 Average
[12] = CVB3, HAP1, read-out: Exp 1 EC50 Hap1
[13] = CVB3, HAP1, read-out: Exp 2 EC50 Hap1
[14] = Enterovirus B, CVB3, HeLa R19, […], read-out: EC50 Exp1
[15] = Enterovirus B, CVB3, HeLa R19, read-out: EC50 Exp1
[16] = Enterovirus B, CVB3 / genotype 2c, HeLa R19, read-out: EC50 CV-B3 WT

Structure (SMILES) | Figure 7 dose-response raw data, CV-B3 (triplicate values) (CV-B3 [1]; Concentration 0.001 µM) | Figure 7 dose-response raw data, CV-B3 (triplicate values) (CV-B3 [1]; Concentration 0.0137 µM) | Figure 7 dose-response raw data, CV-B3 (triplicate values) (CV-B3 [1]; Concentration 0.3704 µM) | EC50 (CV-B3 [1]; [5]) | EC50 (CV-B3 [1]; [6]) | EC50 (CV-B3 [1]; [7]) | EC50 (CV-B3 [1]; [8]) | EC50 (CV-B3 [1]; [9]) | EC50 (CV-B3 [1]; [10]) | EC50 (CV-B3 [2]; [11]) | EC50 (CV-B3 [2]; [12]) | EC50 (CV-B3 [2]; [13]) | EC50 (CV-B3 [3]; read-out: EC50 BGM Average) | EC50 (CV-B3 [3]; read-out: Exp 1 EC50 BGM) | EC50 (CV-B3 [3]; read-out: Exp 2 EC50 BGM) | CC50 (in vitro; CC50 Hap1 Average) | CC50 (in vitro; Exp 1 CC50 Hap1) | CC50 (in vitro; Exp 2 CC50 Hap1) | EC50 (CV-B3 [1]; [15]) | EC50 (CV-B3 [1]; [16]) | other results
COc1ccc(N(Cc2ccc(F)cc2)C(=O)c2ccco2)cc1 [Compound 1, N-(4-fluorobenzyl)-N-(4-methoxyphenyl)furan-2-carboxamide] | 8.4087 and 12.9113 and 13.3731 | 8.178 and 10.6023 and 11.4104 | 31.7298 and 16.0285 and 26.5345 | 1.92 µM | 1.87 µM | 1.96 µM | 1.76 µM | 1.65 µM | 1.87 µM | 1.57 µM | 1.49 µM | 1.65 µM | 1.66 µM | 1.43 µM | 1.89 µM | 45.6 µM | 45.1 µM | 46.1 µM |  |  | antiviral activity against CV-B3 (in words) (CV-B3 [1]): inhibited; Figure 7 dose-response raw data, CV-B3 (triplicate values) (CV-B3 [1]; Concentration 0.0046 µM): 8.524 and 14.1813 and 13.8349; Figure 7 dose-response raw data, CV-B3 (triplicate values) (CV-B3 [1]; Concentration 0.0412 µM): 8.755 and 10.1405 and 13.8349; Figure 7 dose-response raw data, CV-B3 (triplicate values) (CV-B3 [1]; Concentration 0.1235 µM): 8.6396 and 9.794 and 10.7177; Figure 7 dose-response raw data, CV-B3 (triplicate values) (CV-B3 [1]; Concentration 1.1111 µM): 69.1798 and 64.4511 and 60.4699; Figure 7 dose-response raw data, CV-B3 (triplicate values) (CV-B3 [1]; Concentration 3.3333 µM): 108.671 and 85.22 and 102.264; Figure 7 dose-response raw data, CV-B3 (triplicate values) (CV-B3 [1]; Concentration 10 µM): 111.619 and 82.0162 and 97.2661; EC50 (CV-B3 [1]; Enterovirus B, CVB3, HeLa R19): 1.92 ± 0.04 µM; EC50 (CV-B3 [1]; Enterovirus B, CVB3, HeLa R19, read-out: EC50 CV-B3): 1.71 ± 0.07 µM; EC50 (CV-B3 [1]; Enterovirus B, CVB3, HeLa R19, read-out: EC50 CVB3 Experiement 3): 1.78 µM; EC50 (CV-B3 [1]; Enterovirus B, CVB3, HeLa R19, read-out: EC50 CVB3 Experiment 1): 1.72 µM; EC50 (CV-B3 [1]; Enterovirus B, CVB3, HeLa R19, read-out: EC50 CVB3 Experiment 2): 1.62 µM
COc1ccc(N(Cc2ccc(F)cc2)C(=O)c2cc[nH]c2)cc1 [Compound 12a, N-(4-Fluorobenzyl)-N-(4-methoxyphenyl)-1H-pyrrole-3-carboxamide] | 10.6023 and 13.4886 and 15.1049 | 31.7298 and 16.0285 and 26.5345 | 108.081 and 95.0938 and 115.255 |  | 0.059 µM | 0.095 µM | 0.0112 µM | 0.004 µM | 0.0183 µM | 0.023 µM | 0.04 µM | 0.006 µM | 0.035 µM | 0.02 µM | 0.05 µM | > 100 µM | > 100 µM | > 100 µM | 0.017 µM | 0.02 ± 0.01 µM | cross-resistance of 19d-resistant CV-B3 virus pools (in words) (CV-B3 [1]): cross-resistant; increase of antiviral activity against CV-B3 (CV-B3 [1]): ~25 fold; Figure 7 dose-response raw data, CV-B3 (triplicate values) (CV-B3 [1]; Concentration 1.1111 µM): 110.307 and 87.92 and 98.0623; Figure 7 dose-response raw data, CV-B3 (triplicate values) (CV-B3 [1]; Concentration 3.3333 µM): 103.381 and 89.7753 and 100.165; Figure 7 dose-response raw data, CV-B3 (triplicate values) (CV-B3 [1]; Concentration 10 µM): 102.144 and 95.7122 and 98.0623; EC50 (CV-B3 [1]; Enterovirus B, CVB3, HeLa): 0.01 ± 0.01 µM; EC50 (CV-B3 [1]; [14]): 0.18 µM; EC50 (CV-B3 [1]; Enterovirus B, CVB3, HeLa R19, read-out: 50% effective concentration [EC50]): 0.08 ± 0.08 µM; EC50 (CV-B3 [1]; Enterovirus B, CVB3, HeLa R19, read-out: EC50 Average): 0.0187 µM; EC50 (CV-B3 [1]; Enterovirus B, CVB3, HeLa R19, read-out: EC50 Exp2): 0.37 µM; EC50 (CV-B3 [1]; read-out: EC50 Exp2): 0.21 µM; EC50 (CV-B3 [2]; CVB3, HAP1): 0.02 ± 0.02 µM; EC50 (CV-B3 [3]): 0.04 ± 0.02 µM; inhibition in single-cycle viral replication assay (in words) [4]: inhibited all representative viruses; resistance profile against Rluc-CV-B3 2C mutants (in words) (Rluc-CV-B3): resembled that of the parental compound 1 and (S)-fluoxetine; cytotoxic effect in parallel to single-cycle assay (in words) (HeLa R19 cells): none of them showed any cytotoxic effect; CC50 (in vitro; CC50): > 100 µM
O=C(c1ccco1)N(Cc1ccc(F)cc1)c1ccccc1 [Compound 19b, N-(4-Fluorobenzyl)-N-phenylfuran-2-carboxamide] |  |  |  | 0.83 µM | 0.73 µM | 0.93 µM | 0.68 µM | 0.46 µM | 0.89 µM | 0.35 µM | 0.15 µM | 0.55 µM | 0.14 µM | 0.18 µM | 0.09 µM | > 100 µM | > 100 µM | > 100 µM | 0.22 µM | 0.29 ± 0.05 µM | cross-resistance of 19d-resistant CV-B3 virus pools (in words) (CV-B3 [1]): cross-resistant; increase or decrease of antiviral activity against CV-B3 (CV-B3 [1]): less than 3 fold; CC50 (in vitro; CC50): > 100 µM
O=C(c1ccco1)N(Cc1ccc(C(F)(F)F)cc1)c1ccccc1 [Compound 19d, N-phenyl-N-(4-(trifluoromethyl)benzyl)furan-2-carboxamide] |  |  |  | 0.79 µM | 0.73 µM | 0.85 µM | 0.77 µM | 0.91 µM | 0.63 µM | 0.75 µM | 0.69 µM | 0.8 µM | 0.38 µM | 0.44 µM | 0.32 µM | 97.8 µM | 97.5 µM | 98.1 µM | 1.04 µM | 1.26 ± 0.15 µM | effect of the substitution on antiviral activity against CV-B3 (in words) (CV-B3 [1]): only marginally affected antiviral activity; EC50 (CV-B3 [1]; [14]): 7.98 µM; inhibition in single-cycle viral replication assay (in words) [4]: inhibited all representative viruses; cytotoxic effect in parallel to single-cycle assay (in words) (HeLa R19 cells): none of them showed any cytotoxic effect; Cytotoxicity values, % compared to DMSO (Figure 2B) (HeLa R19 cells; compound concentration 0.01 µM): 101.341%
